pEC50: −log10 of the molar value. Read-outs that look alike come from different tables or passages of the source.
Legend:
Type in all cases: cell-based
PPAR Alpha = target: T1, PPAR Alpha (Homo sapiens, UniProt Q07869); assay: PathHunter NHR protein interaction / nuclear translocation agonist test, PPAR Alpha; settings: for pEC50: agonist mode, read-out: PPAR Alpha EC50; for Emax: read-out: PPAR Alpha Maximum Activation Response %; for EC50: PPAR Alpha EC50 nM
T1 sequence (Q07869 1-468): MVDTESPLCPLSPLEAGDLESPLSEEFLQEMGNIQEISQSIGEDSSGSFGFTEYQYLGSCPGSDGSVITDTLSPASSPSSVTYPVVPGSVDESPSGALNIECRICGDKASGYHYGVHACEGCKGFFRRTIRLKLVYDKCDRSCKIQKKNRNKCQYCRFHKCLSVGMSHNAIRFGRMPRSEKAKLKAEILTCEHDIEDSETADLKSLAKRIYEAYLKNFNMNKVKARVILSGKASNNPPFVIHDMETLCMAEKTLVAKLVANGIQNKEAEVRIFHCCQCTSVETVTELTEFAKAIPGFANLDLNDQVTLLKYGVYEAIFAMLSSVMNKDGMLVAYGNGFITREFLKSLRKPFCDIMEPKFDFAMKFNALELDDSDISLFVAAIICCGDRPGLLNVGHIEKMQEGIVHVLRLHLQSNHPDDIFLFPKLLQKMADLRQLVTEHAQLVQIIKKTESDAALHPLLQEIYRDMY

PPAR Gamma = target: T2, PPAR Gamma (Homo sapiens, UniProt P37231); assay: PathHunter NHR protein interaction / nuclear translocation agonist test, PPAR Gamma; settings: for pEC50: agonist mode, read-out: PPAR Gamma EC50; for Emax: read-out: PPAR Gamma Maximum Activation Response %; for EC50: PPAR Gamma EC50 nM
T2 sequence (P37231 1-505): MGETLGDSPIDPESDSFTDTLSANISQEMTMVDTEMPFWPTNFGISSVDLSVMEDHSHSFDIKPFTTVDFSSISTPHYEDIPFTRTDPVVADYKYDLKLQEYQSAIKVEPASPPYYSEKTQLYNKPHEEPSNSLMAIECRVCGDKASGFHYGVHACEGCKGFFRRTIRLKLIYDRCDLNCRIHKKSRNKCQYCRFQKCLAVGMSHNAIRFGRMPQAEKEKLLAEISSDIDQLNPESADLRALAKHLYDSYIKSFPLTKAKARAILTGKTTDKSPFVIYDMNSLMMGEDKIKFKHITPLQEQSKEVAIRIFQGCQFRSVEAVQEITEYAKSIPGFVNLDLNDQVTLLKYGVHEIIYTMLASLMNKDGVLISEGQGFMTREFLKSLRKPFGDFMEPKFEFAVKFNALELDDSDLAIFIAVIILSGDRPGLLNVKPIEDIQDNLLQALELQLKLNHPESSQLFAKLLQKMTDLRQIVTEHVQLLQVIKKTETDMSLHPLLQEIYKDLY

PPAR Delta = target: T3, PPAR Delta (Homo sapiens, UniProt Q03181); assay: PathHunter NHR protein interaction / nuclear translocation agonist test, PPAR Delta; settings: for pEC50: agonist mode, read-out: PPAR Delta EC50; for Emax: read-out: PPAR Delta Maximum Activation Response %; for EC50: PPAR Delta EC50 nM
T3 sequence (Q03181 1-441): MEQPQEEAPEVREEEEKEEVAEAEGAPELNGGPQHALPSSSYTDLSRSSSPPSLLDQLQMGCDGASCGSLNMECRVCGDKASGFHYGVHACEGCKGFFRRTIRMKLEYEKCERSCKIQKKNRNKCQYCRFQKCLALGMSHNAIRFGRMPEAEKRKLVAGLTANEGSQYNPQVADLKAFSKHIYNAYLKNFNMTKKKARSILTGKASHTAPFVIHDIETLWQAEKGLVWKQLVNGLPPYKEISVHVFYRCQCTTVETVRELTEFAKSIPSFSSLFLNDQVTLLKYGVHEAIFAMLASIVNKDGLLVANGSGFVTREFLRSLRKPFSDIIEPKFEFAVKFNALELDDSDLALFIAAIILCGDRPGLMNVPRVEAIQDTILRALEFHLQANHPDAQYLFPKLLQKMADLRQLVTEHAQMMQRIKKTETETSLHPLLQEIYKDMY

[1] = relative to known PPARγ agonist Troglitazone = 100%
[2] = relative to known PPARδ agonist L-165,041 = 100%

Row | pEC50 (PPAR Alpha) | Emax (PPAR Alpha) [%] | Emax (PPAR Gamma; [1]) [%] | Emax (PPAR Delta; [2]) [%] | Compound | pEC50 (PPAR Gamma) | pEC50 (PPAR Delta) | Emax (PPAR Gamma) [%] | Emax (PPAR Delta) [%] | EC50 (PPAR Alpha) [nM] | EC50 (PPAR Gamma) [nM] | EC50 (PPAR Delta) [nM] | PPAR Delta Maximum Activation Response % (PPAR Delta) | PPAR Alpha Maximum Activation Response % (PPAR Alpha)
1 | 6.70 to 6.82 | 80 to 100 | 80 to 100 | 80 to 100 | CSc1ccc(C(=O)C2CN(C(=O)Oc3ccccc3)CC2Cc2ccc(OC(C)(C)C(=O)O)c(C)c2)cc1 (single isomer, unassigned) [Compound 77] | < 6.60 | 6.70 to 6.82 |  |  |  |  |  |  | 
2 | > 7.00 | 80 to 100 | 80 to 100 | 80 to 100 | CSc1ccc(C(=O)[C@H]2CN(C(=O)OC3CCC(C)CC3)C[C@@H]2Cc2cc(C)c(OC(C)(C)C(=O)O)c(C)c2)cc1 (mixture of isomers) [Compound 54] | 6.60 to 6.70 | 6.82 to 7.00 |  |  |  |  |  |  | 
3 | > 7.00 | 80 to 100 | 80 to 100 | 80 to 100 | CSc1ccc(C(=O)C2CN(C(=O)Oc3ccccc3)CC2CCc2ccc(OC(C)(C)C(=O)O)c(F)c2)cc1 (single isomer, unassigned) [Compound 82] | 6.60 to 6.70 | 6.82 to 7.00 |  |  |  |  |  |  | 
4 | 6.82 to 7.00 | 80 to 100 | 80 to 100 | 80 to 100 | CSc1ccc(C(=O)C2CN(C(=O)Oc3ccccc3)CC2Cc2ccc(OC(C)(C)C(=O)O)c(F)c2)cc1 (single isomer, unassigned) [Compound 78] | < 6.60 | 6.82 to 7.00 |  |  |  |  |  |  | 
5 | > 7.00 | 80 to 100 | 80 to 100 | 80 to 100 | Cc1cc(CC2CN(C(=O)Oc3ccccc3)CC2C(=O)c2ccc(Cl)cc2)cc(C)c1OC(C)(C)C(=O)O (single isomer, unassigned) [Compound 70] | 6.70 to 6.82 | > 7.00 |  |  |  |  |  |  | 
6 |  |  |  |  | CSc1ccc(C(=O)C2CN(C(=O)Oc3ccccc3)CC2Cc2cc(C)c(OC(C)(C)C(=O)O)c(C)c2)cc1 (stereo not drawn) [Compound 26] |  | > 7.00 |  | 50 to 80 | < 100 | > 250 |  |  | 
7 | 6.82 to 7.00 | 80 to 100 | 80 to 100 | 80 to 100 | CSc1ccc(C(=O)C2CN(C(=O)Oc3ccccc3)CC2Cc2ccc(OC(C)(C)C(=O)O)cc2)cc1 (single isomer, unassigned) [Compound 76] | < 6.60 | 6.82 to 7.00 |  |  |  |  |  |  | 
8 | > 7.00 | 80 to 100 |  | 80 to 100 | CSc1ccc(C(=O)[C@@H]2CN(C(=O)Oc3ccc(Cl)cc3F)C[C@H]2c2cc(C)c(OC(C)(C)C(=O)O)c(C)c2)cc1 (single isomer, unassigned) [Compound 42] |  | > 7.00 |  |  |  |  |  |  | 
9 | 6.82 to 7.00 | 80 to 100 |  | 80 to 100 | CSc1ccc(C(=O)C2CN(C(=O)Oc3ccccc3)CC2Cc2ccc(OC(C)(C)C(=O)O)cc2F)cc1 (single isomer, unassigned) [Compound 83] |  | 6.60 to 6.70 |  |  |  |  |  |  | 
10 | > 7.00 | 80 to 100 |  | 80 to 100 | CSc1ccc(C(=O)[C@H]2CN(C(=O)OCCC(C)C)C[C@@H]2CCc2cc(C)c(OC(C)(C)C(=O)O)c(C)c2)cc1 (racemic) [Compound 72] |  | 6.82 to 7.00 |  |  |  |  |  |  | 
11 | > 7.00 | 80 to 100 |  | 80 to 100 | CSc1ccc(C(=O)[C@@H]2CN(C(=O)Oc3ccc(Cl)c(Cl)c3)C[C@H]2c2cc(C)c(OC(C)(C)C(=O)O)c(C)c2)cc1 (single isomer, unassigned) [Compound 43] |  | > 7.00 |  |  |  |  |  |  | 
12 | > 7.00 | 80 to 100 |  | 50 to 80 | CSc1ccc(C(=O)[C@H]2CN(C(=O)Cc3ccc(Cl)cc3)C[C@@H]2c2cc(C)c(OC(C)(C)C(=O)O)c(C)c2)cc1 (racemic) [Compound 36] |  | < 6.60 |  |  |  |  |  |  | 
13 | 6.60 to 6.70 | 80 to 100 |  | 50 to 80 | CSc1ccc(C(=O)C2CN(S(N)(=O)=O)CC2c2cc(C)c(OC(C)(C)C(=O)O)c(C)c2)cc1 (single isomer, unassigned) [Compound 19] |  | < 6.60 |  |  |  |  |  |  | 

Row | Compound | pEC50 (PPAR Alpha) | Emax (PPAR Alpha) [%] | Emax (PPAR Gamma; [1]) [%] | Emax (PPAR Delta; [2]) [%] | pEC50 (PPAR Gamma) | pEC50 (PPAR Delta) | Emax (PPAR Gamma) [%] | Emax (PPAR Delta) [%] | EC50 (PPAR Alpha) [nM] | EC50 (PPAR Gamma) [nM] | EC50 (PPAR Delta) [nM] | PPAR Delta Maximum Activation Response % (PPAR Delta) | PPAR Alpha Maximum Activation Response % (PPAR Alpha)
14 | CSc1ccc(C(=O)C2CN(C(=O)OC(C)C)CC2CCc2cc(C)c(OC(C)(C)C(=O)O)c(C)c2)cc1 (single isomer, unassigned) [Compound 58] | 6.82 to 7.00 | 80 to 100 |  |  | 6.60 to 6.70 | > 7.00 | 50 to 80 | 50 to 80 |  |  |  |  | 
15 | CSc1ccc(C(=O)[C@H]2CN(C)C[C@@H]2CCc2cc(C)c(OC(C)(C)C(=O)O)c(C)c2)cc1 (racemic) [Compound 55] |  | < 50 |  |  |  |  | < 50 | 50 to 80 | > 250 | > 250 | 200 to 250 |  | 
16 | COC(=O)N1CC(CCc2cc(C)c(OC(C)(C)C(=O)O)c(C)c2)C(C(=O)c2ccc(SC)cc2)C1 (single isomer, unassigned) [Compound 57] | > 7.00 | 80 to 100 |  |  | 6.60 to 6.70 | > 7.00 | 50 to 80 | 50 to 80 |  |  |  |  | 
17 | Cc1cc(CC[C@H]2CN(C(=O)Oc3ccccc3)C[C@@H]2C(=O)c2ccc([S+](C)[O-])cc2)cc(C)c1OC(C)(C)C(=O)O (mixture of isomers) [Compound 67] |  | 80 to 100 | 80 to 100 |  | < 6.60 | < 6.60 |  | 80 to 100 |  |  |  |  | 
18 | Cc1cc(CCC2CN(C(=O)Oc3ccccc3)CC2C(=O)c2ccc(Cl)cc2)cc(C)c1OC(C)(C)C(=O)O (single isomer, unassigned) [Compound 66] | > 7.00 |  |  |  | 6.70 to 6.82 | > 7.00 |  |  |  |  |  | I (key: 100% ≥ I ≥ 80%; 80% ≥ II ≥ 50%; III < 50%) | 
19 | CSc1ccc(C(=O)C2CN(C(=O)Oc3ccc(Cl)cc3)CC2c2cccc(OC(C)(C)C(=O)O)c2)cc1 (single isomer, unassigned) [Compound 34] | > 7.00 |  |  |  | < 6.60 | < 6.60 | 80 to 100 |  |  |  |  | III (key: 100% ≥ I ≥ 80%; 80% ≥ II ≥ 50%; III < 50%) | I (key: 100% ≥ I ≥ 80%; 80% ≥ II ≥ 50%; III < 50%)
20 | Cc1cc(CCC2CN(C(=O)Oc3ccccc3)CC2C(=O)c2ccc(Cl)cc2)cc(C)c1OC(C)(C)C(=O)O (single isomer, unassigned) [Compound 65] | > 7.00 |  |  |  | 6.60 to 6.70 | > 7.00 |  | 80 to 100 |  |  |  |  | 
21 | CSc1ccc(C(=O)[C@H]2CNC[C@@H]2CCc2cc(C)c(OC(C)(C)C(=O)O)c(C)c2)cc1 (racemic) [Compound 56] | < 6.60 | < 50 |  |  | < 6.60 | 6.60 to 6.70 | < 50 | 50 to 80 |  |  |  |  | 
22 | CSc1ccc(C(=O)[C@H]2CN(C(=O)Oc3ccc(C)nc3)C[C@@H]2Cc2cc(C)c(OC(C)(C)C(=O)O)c(C)c2)cc1 (racemic) [Compound 53] |  | 80 to 100 |  |  |  |  | 80 to 100 | 50 to 80 | 100 to 150 | > 250 | 100 to 150 |  | 
23 | CSc1ccc(C(=O)C2CN(C(=O)Oc3ccccc3Cl)C[C@@H]2c2cc(C)c(OC(C)(C)C(=O)O)c(C)c2)cc1 (mixture of isomers) [Compound 12] | 6.70 to 6.82 | 80 to 100 |  |  |  | < 6.60 |  | 50 to 80 |  |  |  |  | 
24 | CSc1ccc(C(=O)C2CN(C(=O)Oc3ccc(F)cc3)CC2Cc2cc(C)c(OC(C)(C)C(=O)O)c(C)c2)cc1 (single isomer, unassigned) [Compound 28] | > 7.00 | 80 to 100 |  |  |  | > 7.00 |  | 50 to 80 |  |  |  |  | 
25 | COc1ccc(OC(=O)N2CC(C(=O)c3ccc(SC)cc3)[C@@H](c3cc(C)c(OC(C)(C)C(=O)O)c(C)c3)C2)cc1 (mixture of isomers) [Compound 15] | 6.70 to 6.82 | 80 to 100 |  |  |  | 6.60 to 6.70 |  | 50 to 80 |  |  |  |  | 
26 | CSc1ccc(C(=O)C2CN(C(=O)Oc3ccc(C)cc3)CC2c2cc(C)c(OC(C)(C)C(=O)O)c(C)c2)cc1 (single isomer, unassigned) [Compound 39] | > 7.00 | 80 to 100 |  |  |  | 6.82 to 7.00 |  | 80 to 100 |  |  |  |  | 

— patent US10526320B2, “Pyrrolidine derivatives as PPAR agonists” (GUANGDONG RAYNOVENT BIOTECH CO., LTD., priority 2016, dated 2020)
